US20090239918A1, “SELECTIVE SUBTYPE ALPHA 2 ADRENERGIC AGENTS AND METHODS FOR USE THEREOF” (ALLERGAN, INC., priority 2008, published 2009)

How the values were obtained:
Alpha 2B receptor = molecular target: T1, Alpha 2B receptor (Homo sapiens, UniProt P18089); assay: RSAT (Receptor Selection and Amplification Technology) assay, alpha 2B; format: cell-based; settings: for EC50: NIH-3T3 cells cotransfected with receptor and Gq/i5, na = not active; for RSAT (rel eff) Alpha 2B, intrinsic activity: ratio of maximal effect of the drug to maximal effect of standard full agonist brimonidine
T1 construct: expressed in transfected cells; host or cells: NIH-3T3
T1 sequence (P18089 1-450): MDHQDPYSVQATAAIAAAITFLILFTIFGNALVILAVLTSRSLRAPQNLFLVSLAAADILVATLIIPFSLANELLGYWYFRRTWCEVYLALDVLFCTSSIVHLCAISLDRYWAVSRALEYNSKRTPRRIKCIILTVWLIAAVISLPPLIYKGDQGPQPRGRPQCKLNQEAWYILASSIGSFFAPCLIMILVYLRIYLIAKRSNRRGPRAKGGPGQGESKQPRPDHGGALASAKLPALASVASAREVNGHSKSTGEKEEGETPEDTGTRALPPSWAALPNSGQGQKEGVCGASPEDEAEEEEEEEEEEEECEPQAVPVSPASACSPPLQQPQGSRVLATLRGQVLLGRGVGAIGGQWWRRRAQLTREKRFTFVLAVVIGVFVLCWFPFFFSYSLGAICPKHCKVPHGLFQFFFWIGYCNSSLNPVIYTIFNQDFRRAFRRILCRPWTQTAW
Description: (§1) 76, pp. 308-311 (incorporated herein by reference) and is also described below.
(§2) The RSAT assay measures a receptor-mediated loss of contact inhibition that results in selective proliferation of receptor-containing cells in a mixed population of confluent cells. The increase in cell number is assessed with an appropriate transfected marker gene such as β-galactosidase, the activity of which can be easily measured in a 96-well format. Receptors that activate the G protein, Gq, elicit this response. Alpha 2 receptors, which normally couple to Gi, activate the RSAT response when coexpressed with a hybrid Gq protein that has a Gi receptor recognition domain, called Gq/i5.
(§3) NIH-3T3 cells are plated at a density of 2×10^6 cells in 15 cm dishes and maintained in Dulbecco's modified Eagle's medium supplemented with 10% calf serum. One day later, cells are cotransfected by calcium phosphate precipitation with mammalian expression plasmids encoding p-SV-β-galactosidase (5-10 μg), receptor (1-2 μg) and G protein (1-2 μg). 40 μg salmon sperm DNA may also be included in the transfection mixture. Fresh media is added on the following day and 1-2 days later, cells are harvested and frozen in 50 assay aliquots. Cells are thawed and 100 μl added to 100 μL aliquots of various concentrations of drugs in triplicate in 96-well dishes. Incubations continue 72-96 hr at 37° C. After washing with phosphate-buffered saline, β-galactosidase enzyme activity is determined by adding 200 μL of the chromogenic substrate (consisting of 3.5 mM o-nitrophenyl-β-D-galactopyranoside and 0.5% nonidet P-40 in phosphate buffered saline), incubating overnight at 30° C. and measuring optical density at 420 nm. The absorbance is a measure of enzyme activity, which depends on cell number and reflects a receptor-mediated cell proliferation. The efficacy or intrinsic activity is calculated as a ratio of the maximal effect of the drug to the maximal effect of a standard full agonist for each receptor subtype. Brimonidine, the chemical structure of which is shown below, is used as the standard agonist for the alpha 2B and alpha 2C receptors.

Alpha 2C receptor = molecular target: T2, Alpha 2C receptor (Homo sapiens, UniProt P18825); assay: RSAT (Receptor Selection and Amplification Technology) assay, alpha 2C; format: cell-based; settings: for EC50: NIH-3T3 cells cotransfected with receptor and Gq/i5, na = not active; for RSAT (rel eff) Alpha 2C, intrinsic activity: ratio of maximal effect of the drug to maximal effect of standard full agonist brimonidine
T2 construct: expressed in transfected cells; host or cells: NIH-3T3
T2 sequence (P18825 1-462): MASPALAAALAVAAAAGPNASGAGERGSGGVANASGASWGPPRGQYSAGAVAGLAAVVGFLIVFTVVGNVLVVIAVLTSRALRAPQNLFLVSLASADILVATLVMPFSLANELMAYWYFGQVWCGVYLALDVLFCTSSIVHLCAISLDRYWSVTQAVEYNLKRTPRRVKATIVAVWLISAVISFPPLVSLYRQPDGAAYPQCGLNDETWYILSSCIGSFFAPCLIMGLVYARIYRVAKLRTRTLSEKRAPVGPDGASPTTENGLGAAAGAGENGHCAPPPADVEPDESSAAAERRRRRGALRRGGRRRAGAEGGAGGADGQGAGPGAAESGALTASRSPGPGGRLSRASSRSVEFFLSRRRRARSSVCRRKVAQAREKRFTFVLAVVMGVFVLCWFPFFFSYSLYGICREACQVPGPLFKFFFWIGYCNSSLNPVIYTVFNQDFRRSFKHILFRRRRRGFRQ
Description: as §1, §2, §3

EC50 (Alpha 2B receptor) | RSAT (rel eff) Alpha 2B, intrinsic activity (Alpha 2B receptor) | EC50 (Alpha 2C receptor) | RSAT (rel eff) Alpha 2C, intrinsic activity (Alpha 2C receptor) | SMILES
6.38 nM | 0.77 |  |  | c1ccc(CC(N=C2NCCN2)c2ccccc2)cc1 (centres unmarked)
3.69 nM | 0.95 | 3.36 nM | 0.45 | c1ccc(CC(/N=C2\NCCO2)c2ccccc2)cc1 (centres unmarked)
2.96 nM | 0.82 | 4.33 nM | 0.44 | Cc1cccc(CC(/N=C2/NCCS2)c2cccc(Cl)c2)c1 (centres unmarked)
7.14 nM | 0.83 | 4.39 nM | 0.37 | Clc1cccc(C(Cc2ccccc2)/N=C2\NCCO2)c1 (centres unmarked)
6.49 nM | 0.89 | 4.71 nM | 0.33 | Clc1cccc(C(Cc2ccccc2)/N=C2/NCCS2)c1 (centres unmarked)
5.91 nM | 0.76 |  |  | Clc1cccc(C(Cc2ccccc2)N=C2NCCN2)c1 (centres unmarked)
1.52 nM | 0.81 | 3.7 nM | 0.38 | Cc1cccc(CC(N=C2NCCN2)c2cccc(Cl)c2)c1 (centres unmarked)
7.32 nM | 0.76 | 11.8 nM | 0.45 | Cc1ccc(CC(/N=C2/NCCS2)c2cccc(Cl)c2)cc1 (centres unmarked)
5.61 nM | 0.69 |  |  | Cc1ccc(CC(N=C2NCCN2)c2cccc(Cl)c2)cc1 (centres unmarked)
1.92 nM | 0.87 |  |  | Cc1ccccc1CC(N=C1NCCN1)c1cccc(Cl)c1 (centres unmarked)
5.11 nM | 0.74 | 6.78 nM | 0.46 | Cc1ccc(CC(/N=C2\NCCO2)c2cccc(Cl)c2)cc1 (centres unmarked)
3.29 nM | 0.89 | 8.34 nM | 0.46 | Cc1ccccc1CC(/N=C1/NCCS1)c1cccc(Cl)c1 (centres unmarked)
3.69 nM | 0.89 | 9.48 nM | 0.45 | Cc1cccc(C(Cc2ccccc2)/N=C2/NCCS2)c1C (centres unmarked)
1.52 nM | 0.87 | 1.46 nM | 0.39 | Cc1ccccc1CC(/N=C1\NCCO1)c1cccc(Cl)c1 (centres unmarked)
7.64 nM | 0.77 |  |  | Cc1c(Cl)cccc1C(Cc1ccccc1)N=C1NCCN1 (centres unmarked)
3.48 nM | 0.89 | 13.4 nM | 0.39 | Cc1cccc(C(Cc2ccccc2)/N=C2\NCCO2)c1C (centres unmarked)

EC50 (Alpha 2B receptor) | RSAT (rel eff) Alpha 2B, intrinsic activity (Alpha 2B receptor) | EC50 (Alpha 2C receptor) | RSAT (rel eff) Alpha 2C, intrinsic activity (Alpha 2C receptor) | SMILES
2.79 nM | 0.93 | 2.57 nM | 0.32 | Fc1c(Cl)cccc1C(Cc1ccccc1)/N=C1\NCCO1 (centres unmarked)
4.54 nM | 0.89 | 6.48 nM | 0.38 | Fc1c(Cl)cccc1C(Cc1ccccc1)/N=C1/NCCS1 (centres unmarked)
3.09 nM | 0.89 |  |  | Clc1cccc(C(Cc2ccccc2)N=C2NCCN2)c1Cl (centres unmarked)
3.73 nM | 0.89 |  |  | Fc1ccc(CC(N=C2NCCN2)c2cccc(Cl)c2Cl)cc1 (centres unmarked)
3.24 nM | 0.89 |  |  | Clc1cccc(C(Cc2ccccc2Br)N=C2NCCN2)c1Cl (centres unmarked)
1.91 nM | 1.00 |  |  | COc1cccc(CC(N=C2NCCN2)c2cccc(Cl)c2Cl)c1 (centres unmarked)
8.04 nM | 0.95 | 3.54 nM | 0.31 | Cc1c(F)cccc1CC(N=C1NCCN1)c1cccc(Cl)c1Cl (centres unmarked)
1.02 nM | 0.98 | 3.92 nM | 0.39 | Clc1ccc(Cl)c(CC(N=C2NCCN2)c2cccc(Cl)c2Cl)c1 (centres unmarked)
12.5 nM | 0.89 |  |  | Fc1cccc(Cl)c1CC(N=C1NCCN1)c1cccc(Cl)c1Cl (centres unmarked)
0.9 nM | 1.20 | 5.74 nM | 0.42 | Clc1cc(Cl)cc(CC(N=C2NCCN2)c2cccc(Cl)c2Cl)c1 (centres unmarked)
2.79 nM | 1.17 |  |  | Clc1ccc(CC(N=C2NCCN2)c2cccc(Cl)c2Cl)c(Cl)c1 (centres unmarked)
10.8 nM | 0.96 |  |  | Clc1ccc(CC(NC2=NCCN2)c2cccc(Cl)c2Cl)cc1Cl (centres unmarked)
1.55 nM | 1.05 |  |  | Oc1cccc(CC(NC2=NCCN2)c2cccc(Cl)c2Cl)c1 (centres unmarked)
0.61 nM | 0.89 |  |  | COc1ccccc1CC(NC1=NCCN1)c1cccc(Cl)c1 (centres unmarked)
0.63 nM | 0.91 |  |  | COc1ccccc1CC(NC1=NCCO1)c1cccc(Cl)c1 (centres unmarked)
0.86 nM | 0.92 |  |  | Clc1cccc(C(Cc2ccccc2Br)NC2=NCCO2)c1 (centres unmarked)

SMILES | EC50 (Alpha 2B receptor) | RSAT (rel eff) Alpha 2B, intrinsic activity (Alpha 2B receptor) | EC50 (Alpha 2C receptor) | RSAT (rel eff) Alpha 2C, intrinsic activity (Alpha 2C receptor)
c1ccc(CC(/N=C2/NCCS2)c2ccccc2)cc1 (centres unmarked) | 5.43 nM | 0.90 | 9.63 nM | 0.42
Cc1cccc(CC(/N=C2\NCCO2)c2cccc(Cl)c2)c1 (centres unmarked) | 2.79 nM | 0.92 | 8.56 nM | 0.63
Cc1cccc(C(Cc2ccccc2)N=C2NCCN2)c1C (centres unmarked) | 2.54 nM | 0.83 |  | 
Fc1c(Cl)cccc1C(Cc1ccccc1)N=C1NCCN1 (centres unmarked) | 3.57 nM | 0.85 | 1.97 nM | 0.39
